Tests used:
Type in all cases: cell-based, human
[1] = tested on: p44/42 MAP kinase (ERK1 and 2); assay: Immunoblot of phosphorylated p44/42 MAP kinase in DU145 cells
Procedure: 7. […] (A) DU145 cells were grown in 100 mm dishes and serum-starved for 24 hours. The cells were lysed on ice. Equal amounts of cell lysate were analyzed by 12% SDS-PAGE and subsequent immunoblotted with anti-phospho ERK1/2 and anti-ERK1/2 antibodies. (B) Different cell lines, at 70 to 80% confluence, were lysed and immunoblotted with anti-AR polyclonal antibody, NH27. (C) DU145 cells were pre-incubated with MEK1/2 inhibitor U0126, or U0124 before HF, EGF, and ethanol treatment. Cells were lysed and immunoblotted with anti-phospho ERK1/2 and anti-ERK1/2 antibodies. (D) CWR2 and (E) PC3-AR cells were grown in 100 mm dishes and serum-starved for 24 hours. The cells were treated with HF, EGF or ethanol vehicle for 15 mins and immunoblotted with anti-phospho-ERK1/2 and anti-ERK1/2 antibodies. […] MMTV-ARE-Luc reporter plasmid was cotransfected with or without pSG5AR into DU145 cells. After 18 hours, cells were treated with 1 nM DHT, 1 μM HF or both for another 18 hours, and then harvested. Cell lysates were collected and assayed for the luciferase activity.
9. […] After 15 min treatment, cells were lysed and immunoblotted with anti-phospho ERK1/2 and antiERK1/2 antibodies. […] EGFR was immunoprecipitated from the cell lysates, and their phosphotyrosine level was determined by anti-phosphotyrosine antibody. All the results were visualized using enhanced chemiluminescence.
198. This assay uses a polyclonal antibody specific against the activated p44/42 MAP kinases (Cell Signaling Technology, Beverly, Mass.), which detects p44 and p42 MAP kinase (ERK1 and 2) only when catalytically activated by dual phosphorylation at Thr202 and Tyr204. DU145 cells were seeded at 1×10^5 cells per 100 mm plate and allowed to attach overnight and then the media were replaced with serum-free DMEM media for 24 hours. The cells were pre-treated with MAP kinase inhibitors, EGFR antibodies, or cycloheximide for 1 hour and followed by HF, EGF, or vehicle treatment. Cells were washed twice with PBS, harvested at indicated times, and lyzed with RIPA buffer for 30 min on ice. The protein concentrations were determined by Bradford assay, and equal amount of protein was resolved by SDS-PAGE. Gels were transferred, immunoblotted with p44/42 MAP kinase antibody (1/1000), and then incubated with secondary antibody. Proteins were visualized by the enhanced chemiluminescence system (NEN™ Life Science Products, Boston, Mass.). P44/42 MAP kinase (total ERK1/2) was blotted as a control.

[2] = tested on: MAP kinase in PC-3 stably transfected with AR (PC3-AR2); assay: Immunoblot of phospho-ERK1/2 in PC3-AR2 cells; settings: 15 mins
[3] = tested on: association between Ras and Raf; assay: Ras-Raf immunoprecipitation assay in DU145 cells; settings: lysates of treated DU145 cells; 1 μM HF, 10 ng/ml EGF, 1 μM 9-cis retinoic acid
Procedure: 8. […] (A) DU145 cells were treated with ethanol (lane 1), 10 ng/ml EGF (lane 2), 1 μM 9-cis retinoic acid (lane 3), and 1 μM HF (lane 4) after 24 hour serum starvation. Cells were lysed and 300 μg of total protein were immunoprecipitated with anti-Ras antibody, pulled-down by a protein A/G agarose beads, and detected with an anti-Raf antibody. (B) DU145 cells were transfected with pCDNA3.1 or pCDNA3.1-Ras N17 as indicated. After 24 hours serum starvation, the cells were treated with different ligands for 20 min, and then harvested. Western blots were performed with antibodies against phosphoERK1/2 and ERK1/2. The density of phospho-ERK1/2 shown as Optical Density (OD) were determined by the Versa Doc Imaging System (Bio-Rad) and quantified by Quantity One software.
200. Serum-stared and treated DU145 cells were lysed with RIPA buffer for 30 min on ice. Lysates were then centrifuiged at 12,000 g for 10 min at 4° C. and protein concentrations were determined by the Bradford assay. 500 μg of cell lysates were incubated for 4 hours with either anti-Ras or anti-EGFR antibody (1/100, Santa Cruz Biotechnology) to the protein-antibody mixture and then added in 20 μl of protein A/G plus-agarose (Santa Cruz Biotechnology) for another 4 hours incubation with constant rotation. The immunoprecipitates were washed four times with cold PBS, resolved by SDS-PAGE, and immunoblotted by anti-Raf-1 antibody, or anti-phospho-tyrosine monoclonal antibody (Oncogene Research, Calbiochem, La Jolla, Calif.). The results were visualized by chemiluminescence.

[4] = HF at 1 μM, serum-starved DU145 cells

SMILES: CC(C)(O)C(=O)Nc1ccc([N+](=O)[O-])c(C(F)(F)F)c1 [HF, hydroxyflutamide]
- activation of MAP kinase as compared to EGF activation [1]: relatively weak
- total MAP kinase (ERK1/2) protein expression ([1]; DU145 cells): no influence
- time to activate MAP kinase [1, 4]: ≤ 15 min
- time to reach maximum MAP kinase activation [1, 4]: 30 min
- MAP kinase activation [2]: activates MAP kinase
- Raf detected in the Ras immunocomplex [3]: detected
